Assay results as given in patent US20240376113A1 (Volastra Therapeutics, Inc., priority 2020, published 2024).
pKi: −log10 of the molar value. Like-named read-outs stand apart in the source and are kept apart here.

Tests used:
ENPP-1 ECD = ENPP-1 ECD (Homo sapiens (Human), UniProt P22413); experiment: Inhibition of ENPP1 hydrolysis of 2′,3′-cGAMP (Assay 1)
Procedure: Test compounds were plated in a 3× dilution scheme in a 384 well plate.

[1] = biological target: ENPP1 on MDA-MB-231 cells (Homo sapiens (Human), UniProt P22413); experiment: Inhibition of ENPP1 hydrolysis of AMP p-nitrophenyl ester on MDA-MB-231 cells (Assay 2); assay type: cell-based
ENPP1 on MDA-MB-231 cells, sequence (P22413 whole entry): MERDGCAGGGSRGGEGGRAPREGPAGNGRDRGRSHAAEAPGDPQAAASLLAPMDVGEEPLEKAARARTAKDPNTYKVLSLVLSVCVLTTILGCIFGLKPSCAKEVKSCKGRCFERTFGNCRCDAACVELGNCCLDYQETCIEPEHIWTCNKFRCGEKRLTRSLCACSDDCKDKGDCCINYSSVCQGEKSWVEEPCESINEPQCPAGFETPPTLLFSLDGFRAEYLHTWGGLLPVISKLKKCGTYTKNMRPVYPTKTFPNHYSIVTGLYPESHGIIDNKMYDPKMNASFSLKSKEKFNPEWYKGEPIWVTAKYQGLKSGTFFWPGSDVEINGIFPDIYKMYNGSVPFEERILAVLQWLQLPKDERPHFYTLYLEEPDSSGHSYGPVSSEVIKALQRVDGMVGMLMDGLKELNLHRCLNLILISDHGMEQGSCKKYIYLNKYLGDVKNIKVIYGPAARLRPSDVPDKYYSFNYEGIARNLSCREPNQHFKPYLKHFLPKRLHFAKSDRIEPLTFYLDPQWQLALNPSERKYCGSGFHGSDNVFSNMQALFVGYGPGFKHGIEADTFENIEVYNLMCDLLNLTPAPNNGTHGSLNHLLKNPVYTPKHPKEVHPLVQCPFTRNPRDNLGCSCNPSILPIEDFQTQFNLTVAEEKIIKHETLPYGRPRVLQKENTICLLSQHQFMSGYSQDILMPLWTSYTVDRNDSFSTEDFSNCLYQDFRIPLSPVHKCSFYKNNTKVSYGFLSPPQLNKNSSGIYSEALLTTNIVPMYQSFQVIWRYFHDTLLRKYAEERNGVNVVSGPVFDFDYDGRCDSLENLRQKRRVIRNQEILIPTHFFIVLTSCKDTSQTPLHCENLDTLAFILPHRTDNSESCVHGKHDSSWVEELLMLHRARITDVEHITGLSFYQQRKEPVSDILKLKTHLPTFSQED
Procedure: Inhibition of ENPP1 Hydrolysis of AMP p-Nitrophenyl Ester on MDA-MB-231 Cells (Assay 2)
ENPP1 is normally expressed on the human metastatic breast cancer cell line MDA-MB-231. Hydrolysis of the p-nitrophenyl ester of AMP (pNP-AMP), an isostere of ATP, is selectively catalyzed by ENPP1 in the supernatant of MDA-MB-231 cell cultures. Inhibition of the hydrolysis of pNP-AMP by MDA-MB-231 at pH 7.4 and 37° C. is a good model of physiologically relevant activity of membrane-bound ENPP1 at disease-relevant expression levels.
MDA-MB-231 cells were harvested using TypLE Express Enzyme digestion and suspended in 100 μL of Leibovitz's L-15 Medium, 20% FBS, seeding the cells in a 96-well assay plate with 4.5×10^4 cells/well. Cells were incubated at 37 C with 1% CO2 for 24 h. In a separate dilution plate, 2× of top dose of compound was prepared in phenol-red free 1640 medium without FBS and then 1:3 serial diluted in the same medium. The cell culture medium of L15 medium was aspirated carefully and cells were washed with PBS once, and 50 μL per well of test compound or DMSO blank are added to the assay plate. Substrate mix (50 μL; 0.5 mM pNP-AMP in phenol-red free 1640 media without FBS) was added for a pNP-AMP final concentration of 0.25 mM. The system was incubated at 37° C. for 3 h.

[2] = read-out: Assay 1 KI values (class), 2,3-cGAMP 24 μM, AMP-Glo luminescence, KI from IC50 via Cheng/Prusoff
[3] = read-out: Assay 1 KI, 2,3-cGAMP 24 μM, AMP-Glo luminescence, KI from IC50 via Cheng/Prusoff
[4] = pNP-AMP 0.25 mM, MDA-MB-231 cells, 37° C. 3 h, KI,app from IC50 via Cheng/Prusoff, read-out: Assay 2 KI, app
[5] = pNP-AMP 0.25 mM, MDA-MB-231 cells, 37° C. 3 h, KI,app from IC50 via Cheng/Prusoff, read-out: Assay 2 KI,app values (class)
[6] = Assay 1 KI values (class), 2,3-cGAMP 24 μM, AMP-Glo luminescence, KI from IC50 via Cheng/Prusoff

ENPP-1 ECD, sequence (P22413 98-925): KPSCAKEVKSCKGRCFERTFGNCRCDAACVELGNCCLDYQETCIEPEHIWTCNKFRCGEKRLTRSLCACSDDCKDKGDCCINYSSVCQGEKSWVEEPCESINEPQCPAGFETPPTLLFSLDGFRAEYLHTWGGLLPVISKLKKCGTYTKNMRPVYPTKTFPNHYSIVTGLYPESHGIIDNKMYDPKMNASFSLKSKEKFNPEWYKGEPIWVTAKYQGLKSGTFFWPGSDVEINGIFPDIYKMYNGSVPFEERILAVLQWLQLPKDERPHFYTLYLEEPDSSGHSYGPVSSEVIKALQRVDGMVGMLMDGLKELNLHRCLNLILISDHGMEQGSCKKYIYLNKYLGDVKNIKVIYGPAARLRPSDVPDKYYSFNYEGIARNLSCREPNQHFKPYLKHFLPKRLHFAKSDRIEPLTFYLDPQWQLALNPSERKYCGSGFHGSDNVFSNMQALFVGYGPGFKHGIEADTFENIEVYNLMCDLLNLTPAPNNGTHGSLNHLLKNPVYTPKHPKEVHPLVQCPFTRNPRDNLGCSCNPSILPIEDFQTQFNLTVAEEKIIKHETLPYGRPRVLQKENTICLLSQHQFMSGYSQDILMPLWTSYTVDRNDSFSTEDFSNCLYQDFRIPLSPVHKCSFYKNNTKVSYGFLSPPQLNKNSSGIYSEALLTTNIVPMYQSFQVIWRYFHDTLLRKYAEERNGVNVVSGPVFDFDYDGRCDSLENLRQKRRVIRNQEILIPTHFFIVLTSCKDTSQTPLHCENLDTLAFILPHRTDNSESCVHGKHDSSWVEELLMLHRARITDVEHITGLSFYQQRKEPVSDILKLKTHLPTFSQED

Row | Compound | pKi (ENPP-1 ECD) | pKi [1] | pKi (ENPP-1 ECD; [2]) | pKi (ENPP-1 ECD; [3]) | pKi [1, 4] | pKi [1, 5] | pKi (ENPP-1 ECD; [6])
1 | Cc1nc2ncnn2c(N(C)C)c1Cc1cccc(N)c1 | 6.96 | 5.85 | – | – | – | – | –
2 | Cc1nc2ncnn2c(N(C)C)c1Cc1ccc([S@@](C)(=N)=O)cc1 (single isomer, unassigned) [Compound 1b] | – | – | > 8.52 | 10.82 | 8.78 | > 8.00 | –
3 | Cc1nc2ncnn2c(N2CCCC2)c1Cc1ccc([S@](C)(=N)=O)cc1 (single isomer, unassigned) [Compound 8a] | – | – | > 8.52 | 10.27 | 8.01 | > 8.00 | –
4 | Cc1cc2ncnn2c(N(C)C)c1Cc1ccc([S@](C)(=N)=O)cc1 (single isomer, unassigned) [Compound 28a] | – | – | > 8.52 | 11.09 | 9.25 | > 8.00 | –
5 | Cc1nc2ncnn2c(N(C)C)c1Cc1ccc([S@@](C)(=N)=O)cc1 (single isomer, unassigned) [Compound 49a] | – | – | > 8.52 | 10.63 | 8.80 | > 8.00 | –
6 | Cc1c(Cc2ccc([S@@](C)(=N)=O)cc2)c(N(C)C)n2ncnc2c1C#N (single isomer, unassigned) [Compound 85a] | – | – | – | 11.22 | 9.53 | – | –
7 | Cc1nc2ncnn2c(N(C)C)c1Cc1ccc(S(C)(=N)=O)cc1 (centres unmarked) [Compound 1, (4-((7-(dimethylamino)-5-methyl-[1,2,4]triazolo[1,5-a]pyrimidin-6-yl)methyl)phenyl)(imino)(methyl)-λ^6-sulfanone] | – | – | – | 9.96 | 8.13 | > 8.00 | > 8.52
8 | Cc1nc2ncnn2c(N(C)C)c1Cc1ccc(S(N)(=O)=O)cc1 [Compound 2, 4-((7-(dimethylamino)-5-methyl-[1,2,4]triazolo[1,5-a]pyrimidin-6-yl)methyl)benzenesulfonamide] | – | – | – | 9.80 | 7.84 | < 8.00 | > 8.52
9 | Cc1nc2ncnn2c(N(C)C)c1Cc1ccc(P(=O)(O)O)cc1 [Compound 5, (4-{[7-(dimethylamino)-5-methyl-[1,2,4]triazolo[1,5-a]pyrimidin-6-yl]methyl}phenyl)phosphonic acid] | – | – | – | 9.07 | 8.10 | > 8.00 | > 8.52
10 | Cc1nc2ncnn2c(N2CCCC2)c1Cc1ccc(S(C)(=N)=O)cc1 (centres unmarked) [Compound 8, imino(methyl)(4-((5-methyl-7-(pyrrolidin-1-yl)-[1,2,4]triazolo[1,5-a]pyrimidin-6-yl)methyl)phenyl)-λ^6-sulfanone] | – | – | – | 10.14 | 8.11 | > 8.00 | > 8.52
11 | Cc1nc2ncnn2c(N2CCCC2)c1Cc1ccc(S(N)(=O)=O)cc1 [Compound 9, 4-((5-methyl-7-(pyrrolidin-1-yl)-[1,2,4]triazolo[1,5-a]pyrimidin-6-yl)methyl)benzenesulfonamide] | – | – | – | 9.24 | 7.49 | < 8.00 | > 8.52
12 | Cc1nc2ncnn2c(N2CCC2)c1Cc1ccc(S(C)(=N)=O)cc1 (centres unmarked) [Compound 10, (4-((7-(azetidin-1-yl)-5-methyl-[1,2,4]triazolo[1,5-a]pyrimidin-6-yl)methyl)phenyl)(imino)(methyl)-λ^6-sulfanone] | – | – | – | 8.51 | 6.65 | < 8.00 | 6.52 to 8.52
13 | CCN(C)c1c(Cc2ccc(S(C)(=N)=O)cc2)c(C)nc2ncnn12 (centres unmarked) [Compound 12, (4-((7-(ethyl(methyl)amino)-5-methyl-[1,2,4]triazolo[1,5-a]pyrimidin-6-yl)methyl)phenyl)(imino)(methyl)-λ^6-sulfanone] | – | – | – | 9.32 | 7.31 | < 8.00 | > 8.52
14 | Cc1nc2ncnn2c(N2CCCCC2)c1Cc1ccc(S(C)(=N)=O)cc1 (centres unmarked) [Compound 16, imino(methyl)(4-((5-methyl-7-(piperidin-1-yl)-[1,2,4]triazolo[1,5-a]pyrimidin-6-yl)methyl)phenyl)-λ^6-sulfanone] | – | – | – | 10.09 | 7.83 | < 8.00 | > 8.52
15 | Cc1nc2ncnn2c(N2CCCCC2)c1Cc1ccc([S@](C)(=N)=O)cc1 [Compound 16a] | – | – | > 8.52 | 10.20 | 7.92 | < 8.00 | –
16 | Cc1cc2ncnn2c(N(C)C)c1Cc1ccc(S(C)(=N)=O)cc1 (centres unmarked) [Compound 28, (4-{[5-(dimethylamino)-7-methyl-[1,2,4]triazolo[1,5-a]pyridin-6-yl]methyl}phenyl)(imino)methyl-λ^6-sulfanone] | – | – | – | > 10.57 | 8.97 | > 8.00 | > 8.52

Row | Compound | pKi (ENPP-1 ECD) | pKi [1] | pKi (ENPP-1 ECD; [2]) | pKi (ENPP-1 ECD; [3]) | pKi [1, 4] | pKi [1, 5] | pKi (ENPP-1 ECD; [6])
17 | Cc1nc2nccn2c(N(C)C)c1Cc1ccc(S(C)(=N)=O)cc1 (centres unmarked) [Compound 29, (4-{[5-(dimethylamino)-7-methylimidazo[1,2-a]pyrimidin-6-yl]methyl}phenyl)(imino)methyl-λ^6-sulfanone] | – | – | – | 9.60 | 7.91 | < 8.00 | > 8.52
18 | Cc1nc2nccn2c(N(C)C)c1Cc1ccc([S@](C)(=N)=O)cc1 [Compound 29a] | – | – | > 8.52 | 9.97 | 8.50 | > 8.00 | –
19 | Cc1nc2ncnn2c(N2CCCC2)c1Cc1ccc(P(=O)(O)O)cc1 [Compound 36, (4-{[5-methyl-7-(pyrrolidin-1-yl)-[1,2,4]triazolo[1,5-a]pyrimidin-6-yl]methyl}phenyl)phosphonic acid] | – | – | – | 9.29 | 8.25 | > 8.00 | > 8.52
20 | [2H]C([2H])([2H])N(c1c(Cc2ccc(S(C)(=N)=O)cc2)c(C)nc2ncnn12)C([2H])([2H])[2H] (centres unmarked) [Compound 49, [4-[{7-[di(^2H3)methylamino]-5-methyl-[1,2,4]triazolo[1,5-a]pyrimidin-6-yl}methyl)phenyl](imino)methyl-λ^6-sulfanone] | – | – | – | 10.21 | 8.33 | > 8.00 | > 8.52
21 | CCc1nc2ncnn2c(N2CCCC2)c1Cc1ccc(S(C)(=N)=O)cc1 (centres unmarked) [Compound 50, (4-{[5-ethyl-7-(pyrrolidin-1-yl)-[1,2,4]triazolo[1,5-a]pyrimidin-6-yl]methyl}phenyl)(imino)methyl-λ^6-sulfanone] | – | – | – | – | 7.80 | < 8.00 | > 8.52
22 | Cc1nc2ncnn2c(N(C)C)c1-c1ccc2c(c1)CN(S(N)(=O)=O)CC2 [Compound 69, 7-[7-(dimethylamino)-5-methyl-[1,2,4]triazolo[1,5-a]pyrimidin-6-yl]-1,2,3,4-tetrahydroisoquinoline-2-sulfonamide] | – | – | – | 6.91 | – | – | 6.52 to 8.52
23 | Cc1nc2ncnn2cc1Cc1ccc(S(C)(=N)=O)cc1 (centres unmarked) [Compound 70, imino(methyl)[4-({5-methyl-[1,2,4]triazolo[1,5-a]pyrimidin-6-yl}methyl)phenyl]-λ6-sulfanone] | – | – | – | 6.75 | – | – | 6.52 to 8.52
24 | Cc1nc2ncnn2c(C2CC2)c1Cc1ccc(S(C)(=N)=O)cc1 (centres unmarked) [Compound 71, [4-({7-cyclopropyl-5-methyl-[1,2,4]triazolo[1,5-a]pyrimidin-6-yl}methyl)phenyl](imino)methyl-λ6-sulfanone] | – | – | – | – | – | – | 6.52 to 8.52
25 | Cc1nc2ncnn2c(N(C)C)c1Cc1ccc([S@](=N)(=O)CCC(=O)O)cc1 [Compound 72b] | – | – | – | 9.01 | – | – | –
26 | CN(C)c1c(Cc2ccc([S@](C)(=N)=O)cc2)c(Cl)nc2ncnn12 [Compound 74b] | – | – | 6.52 to 8.52 | 8.00 | – | – | –
27 | Cc1c(Cc2ccc([S@](C)(=N)=O)cc2)c(N(C)C)n2ccnc2c1C#N [Compound 80b] | – | – | 6.52 to 8.52 | 7.37 | – | – | –
28 | Cc1nc2nccn2c(N2CCCCC2)c1Cc1ccc(S(C)(=N)=O)cc1 (centres unmarked) [Compound 83, Imino(methyl)(4-{[7-methyl-5-(piperidin-1-yl)imidazo[1,2-a]pyrimidin-6-yl]methyl}phenyl)-λ^6-sulfanone] | – | – | – | 10.01 | – | – | > 8.52
29 | Cc1nc2ncnn2c(N(C)C)c1-c1ccc2c(c1)CCN(S(N)(=O)=O)C2 [Compound 84, 6-[7-(dimethylamino)-5-methyl-[1,2,4]triazolo[1,5-a]pyrimidin-6-yl]-1,2,3,4-tetrahydroisoquinoline-2-sulfonamide] | – | – | – | 6.17 | – | – | < 6.52
30 | Cc1c(Cc2ccc(S(C)(=N)=O)cc2)c(N(C)C)nc2ncnn12 (centres unmarked) [Compound 86, (4-{[5-(dimethylamino)-7-methyl-[1,2,4]triazolo[1,5-a]pyrimidin-6-yl]methyl}phenyl)(imino)methyl-λ^6-sulfanone] | – | – | – | – | 8.08 | – | –
31 | COc1nc2ncnn2c(N(C)C)c1Cc1ccc([S@](C)(=N)=O)cc1 [Compound 88b] | – | – | – | < 7.82 | – | – | –
